According to patent EP0603240B1, “SAFENING HERBICIDAL PYRAZOLYLSULFONYLUREAS” (priority 1991, dated 1993):

Experiments:
Type in all cases: in vivo
corn [1] = experiment: Example 21, Procedure II: Herbicide No. 1 + SUTAN PLUS (butylate + antidote) with antidotes
Procedure: (§1) Containers were filled and compacted with a fumigated silt loam top soil to a depth of about 1.3 cm from the top of the container. A first container was designated as an untreated control, a second container was designated as a herbicide control, and a third container was designated as a herbicide + antidote test container. Each of the containers was seeded with a crop species. A measured amount of herbicide dispersed or dissolved in acetone was applied to a measured quantity of soil. To this same quantity of soil treated with herbicide, there was added a measured amount of antidote dispersed or dissolved in acetone. The quantity of soil treated with the herbicide and antidote was thoroughly mixed to incorporate the herbicide and antidote in the soil uniformly. The seed bed in the third container of soil was covered with the soil treated with the herbicide and antidote and the container was leveled. For each test series, the seed beds of the first and second containers were likewise covered by soil layers. the cover layer of the first container was not treated with herbicide or antidote.
(§2) The containers were then placed on a bench in a greenhouse and sub-irrigated as required for the duration of the test. […] Plant response is measured in terms of percent injury. Antidote efficacy is indicated as the difference in plant injury by the herbicide(s) without the antidote and with the antidote.
(§3) This procedure is the same as Procedure I, but modified in the manner that after incorporation of the chemicals (herbicide and antidote) the containers with the covered seedbed were treated with an initial overhead irrigation equivalent to 0.6 cm rainfall, then subsequently sub-irrigated as required on greenhouse benches.
(§4) In this example, tests were conducted as in the preceding Examples 18-20, except here the co-herbicidal component was SUTAN® PLUS, a commercial product comprising as the active herbicidal ingredient the compound butylate (Herbicide No. 10) and an antidote […] (Antidote No. 1). Again, the antidotal compounds herein were Nos. 1, 2, 7, 13 and 15. Procedure II was used.

[2] = tested on: barnyardgrass (Echinochloa crusgalli); experiment: as above
Procedure: as §1, §2, §3
(§5) In the series of greenhouse tests described below, for routine screening purposes the herbicide/antidote compositions were tested in crop/weed combinations involving corn as the crop and either or both of the weeds barnyardgrass (Echinochloa crusgalli), a monocotyledonous weed, and velvetleaf (Abutilon theophrasti), a dicotyledonous weed. In the tables below, these weeds are indicated by the symbols "BYG" and "VL", respectively.
as §4

[3] = tested on: velvetleaf (Abutilon theophrasti); experiment: as above
Procedure: as §1, §2, §3, §5, §4

[4] = tested on: velvetleaf (Abutilon theophrasti); experiment: Example 24, Procedure II: Herbicide No. 1 + co-herbicides Nos. 4, 6, 7, 12 with Antidote Nos. 15 and 17-21
Procedure: as §1, §2, §3
(§6) In other greenhouse tests, using Procedure II described above, the safening efficacy of Antidote Nos. 15 and 17-21 was evaluated against Herbicide No. 1 in corn in the presence of Giant foxtail (Setaria fabergi) and Velvetleaf (Abutilon theophrasti) as representative annual monocotyledonous and dicotyledonous weeds, respectively.
(§7) Test results are shown in Tables 23A and 23B wherein the indicated plant inhibition represents the average of duplicate replications, with observations being made thirteen (13) days after application of the chemicals. Giant foxtail and Velvetleaf are represented by the symbols "GFT" and "VL", respectively. The data in Table 23A show the test results using the antidotes at 2.24 kg/ha, whereas in Table 23B, the antidotal rate was reduced to 0.56 kg/ha.
(§8) The tests described in Example 23 were duplicated, but in this example a variety of co-herbicides were included to ascertain the efficacy of the antidotes against combinations of Herbicide No. 1 and Herbicides Nos. 4, 6, 7 and 12 as co-herbicides. Test results are shown in Table 24, wherein the antidote application rate was 2.24 kg/ha.

[5] = tested on: Giant foxtail (Setaria fabergi); experiment: as above
Procedure: as §1, §2, §3, §6, §7, §8

corn [6] = experiment: as above
Procedure: as §1, §2, §3, §6, §7, §8

[7] = Herbicide No.1 0.56 kg/ha + SUTAN + 8.96 kg/ha, no added antidote
[8] = Herbicide No.1 0.56 kg/ha alone
[9] = Herbicide No.1 1.12 kg/ha + SUTAN + 8.96 kg/ha, no added antidote
[10] = Herbicide No.1 1.12 kg/ha alone
[11] = Herb. No. 1 0.07 Kg/ha + Co-Herb. No. 4 1.12 Kg/ha + antidote 2.24 Kg/ha
[12] = Herb. No. 1 0.07 Kg/ha + Co-Herb. No. 6 0.14 Kg/ha + antidote 2.24 Kg/ha
[13] = Herb. No. 1 0.07 Kg/ha + Co-Herb. No. 7 0.28 Kg/ha + antidote 2.24 Kg/ha
[14] = Herb. No. 1 0.07 Kg/ha + Co-Herb. No. 12 0.28 Kg/ha + antidote 2.24 Kg/ha
[15] = Herb. No. 1 0.14 Kg/ha + Co-Herb. No. 4 1.12 Kg/ha + antidote 2.24 Kg/ha
[16] = Herb. No. 1 0.14 Kg/ha + Co-Herb. No. 6 0.14 Kg/ha + antidote 2.24 Kg/ha
[17] = Herb. No. 1 0.14 Kg/ha + Co-Herb. No. 7 0.28 Kg/ha + antidote 2.24 Kg/ha
[18] = Herb. No. 1 0.14 Kg/ha + Co-Herb. No. 12 0.28 Kg/ha + antidote 2.24 Kg/ha
[19] = Herb. No. 1 0.28 Kg/ha + Co-Herb. No. 4 1.12 Kg/ha + antidote 2.24 Kg/ha
[20] = Herb. No. 1 0.28 Kg/ha + Co-Herb. No. 6 0.14 Kg/ha + antidote 2.24 Kg/ha
[21] = Herb. No. 1 0.28 Kg/ha + Co-Herb. No. 7 0.28 Kg/ha + antidote 2.24 Kg/ha
[22] = Herb. No. 1 0.28 Kg/ha + Co-Herb. No. 12 0.28 Kg/ha + antidote 2.24 Kg/ha
[23] = Herb. No. 1 0.56 Kg/ha + Co-Herb. No. 4 1.12 Kg/ha + antidote 2.24 Kg/ha
[24] = Herb. No. 1 0.56 Kg/ha + Co-Herb. No. 6 0.14 Kg/ha + antidote 2.24 Kg/ha
[25] = Herb. No. 1 0.56 Kg/ha + Co-Herb. No. 7 0.28 Kg/ha + antidote 2.24 Kg/ha
[26] = Herb. No. 1 0.56 Kg/ha + Co-Herb. No. 12 0.28 Kg/ha + antidote 2.24 Kg/ha

## COC(=O)c1c(Cl)nn(C)c1S(=O)(=O)NC(=O)Nc1nc(OC)cc(OC)n1 [No.1]
Corn [1]; [7]
  % Injury Corn: 10%
Corn [1]; [8]
  % Injury Corn: 0%
Corn [1]; [9]
  % Injury Corn: 5%
Corn [1]; [10]
  % Injury Corn: 30%
[2]; [7]
  % Injury BYG: 20%
[2]; [8]
  % Injury BYG: 10%
[2]; [9]
  % Injury BYG: 50%
[2]; [10]
  % Injury BYG: 10%
[3]; [7]
  % Injury VL: 60%
[3]; [8]
  % Injury VL: 50%
[3]; [9]
  % Injury VL: 70%
[3]; [10]
  % Injury VL: 65%

## CCSC(=O)COC(c1ccccc1)c1ccccc1 [compound 21]
[4]; [11]
  % Inhibition VL: 90%
[4]; [12]
  % Inhibition VL: 85%
[4]; [13]
  % Inhibition VL: 95%
[4]; [14]
  % Inhibition VL: 90%
[4]; [15]
  % Inhibition VL: 90%
[4]; [16]
  % Inhibition VL: 90%
[4]; [17]
  % Inhibition VL: 90%
[4]; [18]
  % Inhibition VL: 95%
[4]; [19]
  % Inhibition VL: 95%
[4]; [20]
  % Inhibition VL: 95%
[4]; [21]
  % Inhibition VL: 95%
[4]; [22]
  % Inhibition VL: 98%
[4]; [23]
  % Inhibition VL: 90%
[4]; [24]
  % Inhibition VL: 98%
[4]; [25]
  % Inhibition VL: 98%
[4]; [26]
  % Inhibition VL: 98%
[5]; [11]
  % Inhibition GFT: 65%
[5]; [12]
  % Inhibition GFT: 100%
[5]; [13]
  % Inhibition GFT: 100%
[5]; [14]
  % Inhibition GFT: 100%
[5]; [15]
  % Inhibition GFT: 60%
[5]; [16]
  % Inhibition GFT: 100%
[5]; [17]
  % Inhibition GFT: 100%
[5]; [18]
  % Inhibition GFT: 99%
[5]; [19]
  % Inhibition GFT: 65%
[5]; [20]
  % Inhibition GFT: 99%
[5]; [21]
  % Inhibition GFT: 98%
[5]; [22]
  % Inhibition GFT: 100%
[5]; [23]
  % Inhibition GFT: 70%
[5]; [24]
  % Inhibition GFT: 100%
[5]; [25]
  % Inhibition GFT: 100%
[5]; [26]
  % Inhibition GFT: 99%
Corn [6]; [11]
  % Inhibition Corn: 5%
Corn [6]; [12]
  % Inhibition Corn: 0%
Corn [6]; [13]
  % Inhibition Corn: 0%
Corn [6]; [14]
  % Inhibition Corn: 0%
Corn [6]; [15]
  % Inhibition Corn: 5%
Corn [6]; [16]
  % Inhibition Corn: 5%
Corn [6]; [17]
  % Inhibition Corn: 0%
Corn [6]; [18]
  % Inhibition Corn: 5%
Corn [6]; [19]
  % Inhibition Corn: 0%
Corn [6]; [20]
  % Inhibition Corn: 5%
Corn [6]; [21]
  % Inhibition Corn: 5%
Corn [6]; [22]
  % Inhibition Corn: 10%
Corn [6]; [23]
  % Inhibition Corn: 5%
Corn [6]; [24]
  % Inhibition Corn: 10%
Corn [6]; [25]
  % Inhibition Corn: 15%
Corn [6]; [26]
  % Inhibition Corn: 20%
